Active and inactive are the calls of the source.
Assays:
[1] = molecular target: T1, Short transient receptor potential channel 4 (Mus musculus, UniProt Q9QUQ5); assay: block of DAMGO-driven TRPC4 calcium entry – cell-based, HEK293 TRPC4/mu-opioid, Fluo-4 calcium, dose response (AID 434942); type: functional;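 also: potency of inhibitors blocking the TRPC4 calcium response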
T1 sequence (Q9QUQ5 whole entry): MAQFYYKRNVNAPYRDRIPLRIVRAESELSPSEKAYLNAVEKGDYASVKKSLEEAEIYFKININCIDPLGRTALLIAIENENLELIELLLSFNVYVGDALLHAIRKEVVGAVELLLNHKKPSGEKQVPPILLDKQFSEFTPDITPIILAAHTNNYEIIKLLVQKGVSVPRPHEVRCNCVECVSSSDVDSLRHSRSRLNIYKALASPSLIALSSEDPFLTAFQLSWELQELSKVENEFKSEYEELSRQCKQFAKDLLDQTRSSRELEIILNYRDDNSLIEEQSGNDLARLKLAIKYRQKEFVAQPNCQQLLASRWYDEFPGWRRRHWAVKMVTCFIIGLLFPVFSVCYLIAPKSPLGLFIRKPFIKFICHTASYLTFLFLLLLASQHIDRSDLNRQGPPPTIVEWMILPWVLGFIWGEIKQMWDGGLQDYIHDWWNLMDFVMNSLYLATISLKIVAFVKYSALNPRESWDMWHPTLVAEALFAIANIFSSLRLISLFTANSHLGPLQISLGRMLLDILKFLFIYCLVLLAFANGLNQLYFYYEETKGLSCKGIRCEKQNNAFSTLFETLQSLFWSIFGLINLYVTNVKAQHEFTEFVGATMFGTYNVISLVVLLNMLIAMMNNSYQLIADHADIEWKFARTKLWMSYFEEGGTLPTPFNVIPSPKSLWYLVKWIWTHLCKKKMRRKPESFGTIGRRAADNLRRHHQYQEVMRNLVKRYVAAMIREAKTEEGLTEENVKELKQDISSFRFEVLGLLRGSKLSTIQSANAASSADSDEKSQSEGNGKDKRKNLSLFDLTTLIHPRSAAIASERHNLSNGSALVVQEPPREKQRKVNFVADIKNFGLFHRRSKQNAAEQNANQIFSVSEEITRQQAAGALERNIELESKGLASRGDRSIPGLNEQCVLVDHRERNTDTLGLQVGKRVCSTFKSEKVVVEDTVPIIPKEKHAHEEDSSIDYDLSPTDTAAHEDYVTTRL

Hexokinase-1 = Hexokinase-1 (Homo sapiens, UniProt P19367); assay: HK1 enzyme activation by HKDC1 hits – biochemical, selectivity assay for HKDC1 activator project, dose response (AID 504762); type: functional
Hexokinase HKDC1 = molecular target: T2, Hexokinase HKDC1 (Homo sapiens, UniProt Q2TB90); assay: activation of HKDC1 glucose phosphorylation – biochemical, W721R variant, dose response (AID 504730); type: functional
T2 sequence (Q2TB90 whole entry): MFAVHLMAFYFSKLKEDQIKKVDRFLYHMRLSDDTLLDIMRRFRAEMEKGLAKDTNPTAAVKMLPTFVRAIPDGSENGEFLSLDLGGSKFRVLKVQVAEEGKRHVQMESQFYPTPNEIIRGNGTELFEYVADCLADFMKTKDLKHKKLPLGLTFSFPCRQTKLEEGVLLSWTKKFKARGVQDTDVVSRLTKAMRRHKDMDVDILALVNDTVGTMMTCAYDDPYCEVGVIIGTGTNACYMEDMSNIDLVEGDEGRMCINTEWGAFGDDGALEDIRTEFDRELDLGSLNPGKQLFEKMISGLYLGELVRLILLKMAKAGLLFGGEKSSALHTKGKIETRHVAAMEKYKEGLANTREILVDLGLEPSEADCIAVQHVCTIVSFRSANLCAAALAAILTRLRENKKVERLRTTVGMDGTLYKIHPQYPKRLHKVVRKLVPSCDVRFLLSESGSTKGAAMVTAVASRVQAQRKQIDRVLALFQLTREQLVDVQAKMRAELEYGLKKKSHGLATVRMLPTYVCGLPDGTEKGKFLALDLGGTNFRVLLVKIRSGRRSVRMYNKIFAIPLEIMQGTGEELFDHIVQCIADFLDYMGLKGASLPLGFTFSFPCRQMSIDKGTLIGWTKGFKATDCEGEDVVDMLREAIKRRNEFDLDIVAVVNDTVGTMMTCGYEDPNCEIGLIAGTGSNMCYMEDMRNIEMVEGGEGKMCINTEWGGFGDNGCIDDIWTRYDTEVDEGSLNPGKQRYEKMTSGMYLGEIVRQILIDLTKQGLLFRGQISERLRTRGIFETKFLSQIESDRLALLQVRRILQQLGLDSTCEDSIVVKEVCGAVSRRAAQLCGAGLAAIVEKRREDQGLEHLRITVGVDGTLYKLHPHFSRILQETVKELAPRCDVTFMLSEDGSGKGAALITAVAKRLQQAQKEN

Cytochrome P450 2D6 = Cytochrome P450 2D6 (Homo sapiens, UniProt P10635);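 also: CYP2D6 member of a cytochrome P450 panel assay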
[2] = Counterscreen for antagonists of the orexin 1 receptor (OX1R; HCRTR1): Fluorescence-based cell-based high throughput dose response assay to identify antagonists of the parental CHO cell line. [Related pubchem assays (depositor defined):AID434989, AID435008, AID463079, AID485270, AID492963, AID492964, AID492965, AID493232, AID504699, AID504701]; type: functional
[3] = Trypanosoma cruzi growth suppression in host cells – NIH3T3 host cells, beta-gal luminescence, confirmation (AID 2044); type: functional, cell-based;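 also: intracellular parasites grown in NIH/3T3 mouse fibroblasts as host cells; luminescent beta-galactosidase reporter signal from transgenic T. cruzi replicating inside host cells; inhibitors lower the luminescence signal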
[4] = molecular target: T3, Orexin/Hypocretin receptor type 1 (Homo sapiens, UniProt O43613); assay: Homogeneous Time Resolved Fluorescence (HTRF)-based cell-based high throughput dose response assay for antagonists of the orexin 1 receptor (OX1R; HCRTR1). [Related pubchem assays (depositor defined):AID434989, AID435008, AID463079, AID485270, AID492963, AID492964, AID492965, AID493232, AID504717, AID504718]; type: functional
T3 sequence (O43613 whole entry): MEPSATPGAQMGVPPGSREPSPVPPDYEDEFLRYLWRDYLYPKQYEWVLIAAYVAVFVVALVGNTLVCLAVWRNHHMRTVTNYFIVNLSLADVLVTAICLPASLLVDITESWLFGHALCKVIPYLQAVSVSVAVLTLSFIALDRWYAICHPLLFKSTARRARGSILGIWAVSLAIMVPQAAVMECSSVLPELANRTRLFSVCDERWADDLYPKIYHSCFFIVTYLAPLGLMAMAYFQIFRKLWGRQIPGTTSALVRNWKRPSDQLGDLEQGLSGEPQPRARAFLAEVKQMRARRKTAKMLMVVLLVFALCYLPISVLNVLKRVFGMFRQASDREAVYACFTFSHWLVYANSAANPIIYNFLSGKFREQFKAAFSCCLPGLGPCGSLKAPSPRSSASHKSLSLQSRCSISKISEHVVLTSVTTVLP

[5] = molecular target: T3, Orexin/Hypocretin receptor type 1; assay: Fluorescence-based cell-based high throughput dose response assay for antagonists of the orexin 1 receptor (OX1R; HCRTR1). [Related pubchem assays (depositor defined):AID434989, AID435008, AID463079, AID485270, AID492963, AID492964, AID492965, AID493232, AID504717, AID504718]; type: functional
CHO-K1 = assay: Counterscreen for antagonists of the orexin 1 receptor (OX1R; HCRTR1): Homogeneous time resolved fluorescence (HTRF)-based cell-based dose response assay to identify antagonists of the parental CHO-K1 cell line. [Related pubchem assays (depositor defined):AID434989, AID435008, AID463079, AID485270, AID492963, AID492964, AID492965, AID493232, AID504699, AID504701]; type: functional; details: Cricetulus griseus;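 also: potency for inhibition of ATP-stimulated IP1 production as antagonists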
INS1 = assay: INS-1E survival protection against cytokine death – cell-based, luminescence, retest, dose response (AID 449756); type: functional; details: Rattus norvegicus;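 also: cell death triggered by IL-1 beta plus TNF-alpha plus IFN-gamma mixture; protective hits raise ATP signal compared with cytokine alone wells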
X-box-binding protein 1 = X-box-binding protein 1 (Homo sapiens, UniProt P17861); type: functional, Cricetulus griseus;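 also: confirmatory dose-response counter-screen serving a CHOP assay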
Phosphomannomutase 2 = Phosphomannomutase 2 (Homo sapiens, UniProt O15305); assay: Counter screen SAR assay for PMM2 inhibitors via a fluorescence intensity assay. [Related pubchem assays (depositor defined):AID1545, AID1574]
Paired box protein Pax-8 = Paired box protein Pax-8 (Homo sapiens, UniProt Q06710); assay: PAX8 transcriptional activity inhibition in RMG-I – RMG-I cells, luciferase, cherry-pick, dose response (AID 687027); type: functional, cell-based;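 also: luciferase reporter driven by Pax8 target thyroperoxidase promoter measured by SteadyGlo luminescence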
[6] = molecular target: T4, Heat shock factor protein 1 (Mus musculus, UniProt P38532); assay: enhancement of HSF1-driven luciferase signal – cell-based, NIH3T3, luminescence, dose retest, confirmation (AID 435004); type: functional;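 also: stress induced by proteasome inhibitor MG132 added 30 min after compound; luciferase reporter driven by HSF1 response element in NIH3T3 cells; actives raise luminescence as potentiators of the MG132 stress response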
T4 sequence (P38532 whole entry): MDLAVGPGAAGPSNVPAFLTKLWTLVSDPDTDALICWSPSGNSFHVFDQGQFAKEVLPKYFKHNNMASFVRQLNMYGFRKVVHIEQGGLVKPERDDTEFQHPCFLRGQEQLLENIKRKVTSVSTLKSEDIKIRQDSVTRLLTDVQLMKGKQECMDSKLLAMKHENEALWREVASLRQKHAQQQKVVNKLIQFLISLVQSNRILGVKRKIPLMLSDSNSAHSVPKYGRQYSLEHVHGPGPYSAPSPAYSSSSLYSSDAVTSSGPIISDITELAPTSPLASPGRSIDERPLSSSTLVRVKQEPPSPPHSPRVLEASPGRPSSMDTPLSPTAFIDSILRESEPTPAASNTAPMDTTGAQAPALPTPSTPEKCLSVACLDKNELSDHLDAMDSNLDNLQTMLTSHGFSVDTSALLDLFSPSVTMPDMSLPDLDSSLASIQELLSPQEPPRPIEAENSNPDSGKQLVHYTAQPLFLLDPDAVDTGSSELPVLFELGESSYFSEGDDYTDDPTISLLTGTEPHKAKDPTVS

SUMO-activating enzyme = SUMO-activating enzyme (Homo sapiens, UniProt Q9UBT2); assay: blockers of UBC9-mediated SUMO conjugation – biochemical, AlphaScreen, SUMOylation inhibitor project, confirmation (AID 2018); type: functional
[7] = molecular target: T5, Mannose-6-phosphate isomerase (Homo sapiens, UniProt P34949); assay: MPI inhibition at elevated mannose 6-phosphate – biochemical, fluorescence intensity, high mannose 6-phosphate, primary screen (AID 1220)
T5 sequence (P34949 whole entry): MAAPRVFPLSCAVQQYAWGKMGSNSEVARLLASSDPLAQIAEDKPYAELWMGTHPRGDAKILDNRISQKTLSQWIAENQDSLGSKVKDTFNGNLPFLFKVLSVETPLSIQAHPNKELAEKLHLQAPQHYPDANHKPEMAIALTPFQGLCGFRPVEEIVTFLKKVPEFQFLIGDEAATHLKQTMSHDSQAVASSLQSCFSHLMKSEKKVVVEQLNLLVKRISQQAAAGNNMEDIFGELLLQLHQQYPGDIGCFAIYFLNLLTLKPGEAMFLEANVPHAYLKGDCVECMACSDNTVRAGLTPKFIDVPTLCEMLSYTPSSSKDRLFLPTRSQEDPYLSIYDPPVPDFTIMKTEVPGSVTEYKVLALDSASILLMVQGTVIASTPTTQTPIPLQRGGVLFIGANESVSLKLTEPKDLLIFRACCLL

Nonstructural protein 1 = Nonstructural protein 1 (Influenza A virus, UniProt Q194T2); type: functional, Influenza A virus (A/California/07/2009(H1N1))
Beta-galactosidase = Beta-galactosidase (Escherichia coli, UniProt Q8VNN2); type: functional
[8] = molecular target: T6, Delta-type opioid receptor (Homo sapiens, UniProt P41143); assay: HTS Image-Based Screen for Agonists of the DOR Receptor. [Related pubchem assays (depositor defined):AID1777, AID1786, AID2133]; type: functional
[9] = molecular target: T6, Delta-type opioid receptor; assay: HTS Image-Based Screen for Antagonists of the DOR Receptor. [Related pubchem assays (depositor defined):AID1777, AID1785, AID1786, AID2133]; type: functional
[10] = molecular target: T7, Kappa-type opioid receptor (Homo sapiens, UniProt P41145); type: functional
[11] = molecular target: T7, Kappa-type opioid receptor; type: functional; remark: listed apart in the source
Mu-type opioid receptor = Mu-type opioid receptor (Homo sapiens, UniProt P35372); assay: HTS Image-Based Screen for Agonists of the MOR Receptor. [Related pubchem assays (depositor defined):AID1777, AID1785, AID1786, AID2133]; type: functional;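 also: imaging of beta-arrestin GFP recruitment into spots after receptor activation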

T6 sequence (P41143 whole entry): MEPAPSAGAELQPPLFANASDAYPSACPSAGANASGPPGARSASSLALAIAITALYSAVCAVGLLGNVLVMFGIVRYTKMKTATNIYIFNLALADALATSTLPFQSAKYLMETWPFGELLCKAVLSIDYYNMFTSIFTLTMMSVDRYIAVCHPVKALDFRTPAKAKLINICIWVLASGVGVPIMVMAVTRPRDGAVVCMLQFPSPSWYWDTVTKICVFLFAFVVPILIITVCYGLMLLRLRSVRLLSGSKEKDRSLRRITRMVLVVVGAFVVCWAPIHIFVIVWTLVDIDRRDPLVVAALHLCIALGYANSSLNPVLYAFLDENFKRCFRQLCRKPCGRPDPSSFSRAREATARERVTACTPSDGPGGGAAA
T7 sequence (P41145 whole entry): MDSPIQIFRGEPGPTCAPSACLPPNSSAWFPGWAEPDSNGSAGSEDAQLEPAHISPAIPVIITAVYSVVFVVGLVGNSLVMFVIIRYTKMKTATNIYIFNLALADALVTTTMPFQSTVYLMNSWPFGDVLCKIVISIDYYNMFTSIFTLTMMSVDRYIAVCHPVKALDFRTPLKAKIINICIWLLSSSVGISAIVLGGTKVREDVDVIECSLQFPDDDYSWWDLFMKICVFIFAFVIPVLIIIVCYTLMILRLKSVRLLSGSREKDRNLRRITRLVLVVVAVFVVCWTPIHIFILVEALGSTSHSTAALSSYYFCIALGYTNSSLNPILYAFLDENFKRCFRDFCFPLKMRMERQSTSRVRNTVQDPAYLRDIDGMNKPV
Hexokinase-1, sequence (P19367 whole entry): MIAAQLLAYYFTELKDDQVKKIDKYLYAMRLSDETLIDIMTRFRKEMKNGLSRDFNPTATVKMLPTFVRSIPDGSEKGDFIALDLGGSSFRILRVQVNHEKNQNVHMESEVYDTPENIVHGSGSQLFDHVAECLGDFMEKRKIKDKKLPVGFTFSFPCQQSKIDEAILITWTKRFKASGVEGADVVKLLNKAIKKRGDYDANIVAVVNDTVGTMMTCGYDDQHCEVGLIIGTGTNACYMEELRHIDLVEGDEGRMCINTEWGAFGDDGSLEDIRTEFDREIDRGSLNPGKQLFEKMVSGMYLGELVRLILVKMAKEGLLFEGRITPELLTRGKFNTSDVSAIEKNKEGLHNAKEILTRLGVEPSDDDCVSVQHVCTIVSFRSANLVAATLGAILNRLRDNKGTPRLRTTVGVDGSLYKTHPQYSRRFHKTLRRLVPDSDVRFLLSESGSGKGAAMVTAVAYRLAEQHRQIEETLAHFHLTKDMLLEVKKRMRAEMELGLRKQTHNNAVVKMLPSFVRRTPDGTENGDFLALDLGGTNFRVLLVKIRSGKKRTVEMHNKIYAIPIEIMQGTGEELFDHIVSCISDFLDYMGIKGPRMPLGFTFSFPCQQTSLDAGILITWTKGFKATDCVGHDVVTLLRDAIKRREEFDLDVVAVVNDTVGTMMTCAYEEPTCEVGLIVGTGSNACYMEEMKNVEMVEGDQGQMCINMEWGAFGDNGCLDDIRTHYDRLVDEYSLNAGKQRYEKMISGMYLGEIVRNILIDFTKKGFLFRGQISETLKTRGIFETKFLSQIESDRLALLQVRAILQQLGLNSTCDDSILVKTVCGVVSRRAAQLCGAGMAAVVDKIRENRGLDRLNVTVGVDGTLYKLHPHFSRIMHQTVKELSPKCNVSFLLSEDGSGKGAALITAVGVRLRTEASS
Nonstructural protein 1, sequence (Q194T2 whole entry): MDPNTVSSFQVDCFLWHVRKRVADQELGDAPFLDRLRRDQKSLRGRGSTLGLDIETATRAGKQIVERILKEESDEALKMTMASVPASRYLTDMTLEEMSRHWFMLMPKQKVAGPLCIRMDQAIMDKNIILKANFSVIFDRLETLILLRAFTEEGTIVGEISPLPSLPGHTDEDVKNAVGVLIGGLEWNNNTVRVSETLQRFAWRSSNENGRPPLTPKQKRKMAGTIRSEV
Cytochrome P450 2D6, sequence (P10635 whole entry): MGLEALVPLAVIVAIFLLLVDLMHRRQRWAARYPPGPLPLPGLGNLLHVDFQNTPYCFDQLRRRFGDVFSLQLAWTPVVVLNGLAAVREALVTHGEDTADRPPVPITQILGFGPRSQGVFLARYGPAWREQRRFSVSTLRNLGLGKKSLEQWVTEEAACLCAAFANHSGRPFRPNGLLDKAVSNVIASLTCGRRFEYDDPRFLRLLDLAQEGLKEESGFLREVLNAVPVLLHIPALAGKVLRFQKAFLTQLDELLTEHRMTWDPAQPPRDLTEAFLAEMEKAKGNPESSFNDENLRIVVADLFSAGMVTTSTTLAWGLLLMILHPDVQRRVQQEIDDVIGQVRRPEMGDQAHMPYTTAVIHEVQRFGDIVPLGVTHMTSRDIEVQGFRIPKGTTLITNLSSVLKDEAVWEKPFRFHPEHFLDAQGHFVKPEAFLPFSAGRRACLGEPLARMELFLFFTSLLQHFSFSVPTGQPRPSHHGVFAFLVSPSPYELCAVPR
SUMO-activating enzyme, sequence (Q9UBE0 whole entry): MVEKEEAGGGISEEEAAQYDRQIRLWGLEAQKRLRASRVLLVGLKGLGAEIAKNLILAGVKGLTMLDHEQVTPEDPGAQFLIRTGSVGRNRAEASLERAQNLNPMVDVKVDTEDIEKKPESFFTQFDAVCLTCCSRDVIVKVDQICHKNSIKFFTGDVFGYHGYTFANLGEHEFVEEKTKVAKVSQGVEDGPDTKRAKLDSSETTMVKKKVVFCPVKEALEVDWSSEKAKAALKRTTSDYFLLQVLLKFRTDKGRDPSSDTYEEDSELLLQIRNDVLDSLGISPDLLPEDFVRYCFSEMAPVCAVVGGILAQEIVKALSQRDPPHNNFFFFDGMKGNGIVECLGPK
SUMO-activating enzyme, sequence (Q9UBT2 whole entry): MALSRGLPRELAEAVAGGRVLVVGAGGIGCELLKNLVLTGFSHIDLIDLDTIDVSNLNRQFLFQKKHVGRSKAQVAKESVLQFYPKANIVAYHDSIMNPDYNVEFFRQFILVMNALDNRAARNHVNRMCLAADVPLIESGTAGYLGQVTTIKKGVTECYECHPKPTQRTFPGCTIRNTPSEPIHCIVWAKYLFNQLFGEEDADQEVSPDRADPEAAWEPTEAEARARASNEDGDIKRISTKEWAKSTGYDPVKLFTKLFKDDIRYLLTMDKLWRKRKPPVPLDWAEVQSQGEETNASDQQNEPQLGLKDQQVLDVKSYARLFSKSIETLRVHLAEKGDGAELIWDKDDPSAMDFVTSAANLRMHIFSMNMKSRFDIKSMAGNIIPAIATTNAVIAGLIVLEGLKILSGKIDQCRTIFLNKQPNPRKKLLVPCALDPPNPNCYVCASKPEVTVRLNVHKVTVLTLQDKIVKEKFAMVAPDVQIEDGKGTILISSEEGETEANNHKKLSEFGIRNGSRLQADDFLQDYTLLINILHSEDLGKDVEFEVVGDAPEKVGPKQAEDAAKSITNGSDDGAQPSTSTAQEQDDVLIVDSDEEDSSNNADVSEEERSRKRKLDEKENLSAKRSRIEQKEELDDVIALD
X-box-binding protein 1, sequence (P17861 whole entry): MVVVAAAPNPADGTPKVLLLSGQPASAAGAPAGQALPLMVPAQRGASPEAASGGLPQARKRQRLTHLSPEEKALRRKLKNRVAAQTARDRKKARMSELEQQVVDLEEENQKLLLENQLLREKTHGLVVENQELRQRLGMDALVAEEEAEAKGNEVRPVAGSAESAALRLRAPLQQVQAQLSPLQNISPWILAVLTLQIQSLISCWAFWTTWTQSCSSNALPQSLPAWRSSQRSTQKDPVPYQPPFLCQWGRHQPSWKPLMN
Beta-galactosidase, sequence (Q8VNN2 whole entry): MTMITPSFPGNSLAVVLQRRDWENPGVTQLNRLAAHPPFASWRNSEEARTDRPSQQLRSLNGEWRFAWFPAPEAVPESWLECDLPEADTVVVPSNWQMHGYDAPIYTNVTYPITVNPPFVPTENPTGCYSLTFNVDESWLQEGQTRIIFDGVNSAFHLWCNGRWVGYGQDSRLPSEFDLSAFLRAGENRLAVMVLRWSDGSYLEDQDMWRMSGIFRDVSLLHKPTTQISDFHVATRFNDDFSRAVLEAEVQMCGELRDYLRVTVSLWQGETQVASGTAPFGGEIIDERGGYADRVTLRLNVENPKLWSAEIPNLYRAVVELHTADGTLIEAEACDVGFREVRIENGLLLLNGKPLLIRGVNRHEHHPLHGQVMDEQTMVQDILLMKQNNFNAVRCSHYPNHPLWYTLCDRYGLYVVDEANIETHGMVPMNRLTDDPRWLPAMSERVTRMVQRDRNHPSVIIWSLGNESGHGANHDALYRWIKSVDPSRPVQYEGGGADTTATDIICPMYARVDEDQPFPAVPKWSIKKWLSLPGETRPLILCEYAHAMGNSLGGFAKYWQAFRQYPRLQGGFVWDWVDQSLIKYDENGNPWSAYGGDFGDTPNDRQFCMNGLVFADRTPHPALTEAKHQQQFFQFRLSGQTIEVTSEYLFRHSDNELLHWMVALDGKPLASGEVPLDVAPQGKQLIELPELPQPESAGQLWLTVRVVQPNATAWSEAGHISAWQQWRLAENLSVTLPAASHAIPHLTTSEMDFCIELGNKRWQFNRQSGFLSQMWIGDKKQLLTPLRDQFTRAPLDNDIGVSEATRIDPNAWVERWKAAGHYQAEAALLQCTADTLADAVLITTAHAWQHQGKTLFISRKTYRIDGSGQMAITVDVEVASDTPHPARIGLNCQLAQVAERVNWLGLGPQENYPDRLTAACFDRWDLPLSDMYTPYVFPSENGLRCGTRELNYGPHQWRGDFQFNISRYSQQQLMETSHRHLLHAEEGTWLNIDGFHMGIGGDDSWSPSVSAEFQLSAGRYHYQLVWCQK
Phosphomannomutase 2, sequence (O15305 whole entry): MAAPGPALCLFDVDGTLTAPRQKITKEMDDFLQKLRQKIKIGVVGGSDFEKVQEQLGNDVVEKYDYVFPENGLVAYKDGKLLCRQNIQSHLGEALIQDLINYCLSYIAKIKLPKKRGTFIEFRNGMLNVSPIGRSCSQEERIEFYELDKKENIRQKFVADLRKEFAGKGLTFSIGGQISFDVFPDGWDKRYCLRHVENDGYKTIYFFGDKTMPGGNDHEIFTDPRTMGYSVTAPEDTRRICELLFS

SMILES: CCCN1C2=NCCN2c2cc(C)c(C)cc21
- EC50 [1]: 5.96 µM (active)

SMILES: COc1ccc(-c2nc3c(c(=O)n(C)c(=O)n3C)n2CC2CC(c3ccccc3)=NO2)cc1OC (configuration not stated)
- EC50 (Hexokinase-1): 35.1 µM (inactive)
- EC50 (Hexokinase HKDC1): 33.4 µM (inactive)

SMILES: NC(=S)N/N=C/c1ccccc1OCc1cccc(Cl)c1
- AC50 (Cytochrome P450 2D6): inconclusive
- IC50 [2]: > 49.7 µM (inactive)
- EC50 [3]: 0.323 µM (active)
- IC50 [4]: 2.71 µM (active)
- IC50 [5]: 7.74 µM (active)
- IC50 (CHO-K1): > 66.2 µM (inactive)

SMILES: CSc1nc(-c2ccccc2)nc(C(Cl)Cl)n1
- AC50 (INS1): 3.69 µM (active)
- Absolute IC50 (XBP1) (X-box-binding protein 1): 10 µM
- IC50 (Phosphomannomutase 2): > 100 µM (inactive)
- AC50 (Paired box protein Pax-8): 2.26 µM (active)
- EC50 [6]: 2.7 µM (active)

SMILES: C/C(=N\NC(=O)CNc1cccc2ccccc12)c1ccccc1
- IC50 (SUMO-activating enzyme): > 100 µM (inactive)
- IC50 [7]: > 50 µM (not active)

SMILES: O=C(NC(=S)NNC(=O)c1cnccn1)c1ccc(F)cc1
- AC50 (INS1): 0.889 µM (active)
- IC50 (Nonstructural protein 1): 2.95 µM (active)
- EC50 (Hexokinase-1): > 80 µM (inactive)
- EC50 (Hexokinase HKDC1): 14.5 µM (active)

SMILES: COc1ccc(N2CCN(CCCNC(=O)C(=O)c3c(C)n(C)c4ccccc34)CC2)cc1
- EC50 (Beta-galactosidase): > 31.5 µM (inactive)
- EC50 [8]: > 32 µM (inactive)
- IC50 [9]: > 32 µM (inactive)
- IC50 [10]: 6.16 µM
- IC50 [11]: 18.3 µM (active)
- EC50 (Mu-type opioid receptor): > 32 µM (inactive)

SMILES: CCc1cccc(OCC(=O)Nc2ccc(C(=O)O)cc2NC(=O)COc2cccc(CC)c2)c1
- EC50 [1]: 11.9 µM (active)

Source: ChEMBL document CHEMBL1201862, “PubChem BioAssay data set” (2004)
